Experimental data reported in patent US20220354860A1, “HETEROCYCLIC DERIVATIVES AND USE THEREOF” (Fochon Pharmaceuticals, Ltd., priority 2019, published 2022).

Experiments:
[1] = biological target: T1, URAT1 (Homo sapiens, UniProt Q96S37); assay: URAT1 inhibitor activity, 14C-uric acid uptake in HEK293-URAT1 cells; type: cell-based; conditions: URAT1 inhibition, 14C-Uric acid 5.0 μmol/L, 2 min
T1 sequence (Q96S37 1-553): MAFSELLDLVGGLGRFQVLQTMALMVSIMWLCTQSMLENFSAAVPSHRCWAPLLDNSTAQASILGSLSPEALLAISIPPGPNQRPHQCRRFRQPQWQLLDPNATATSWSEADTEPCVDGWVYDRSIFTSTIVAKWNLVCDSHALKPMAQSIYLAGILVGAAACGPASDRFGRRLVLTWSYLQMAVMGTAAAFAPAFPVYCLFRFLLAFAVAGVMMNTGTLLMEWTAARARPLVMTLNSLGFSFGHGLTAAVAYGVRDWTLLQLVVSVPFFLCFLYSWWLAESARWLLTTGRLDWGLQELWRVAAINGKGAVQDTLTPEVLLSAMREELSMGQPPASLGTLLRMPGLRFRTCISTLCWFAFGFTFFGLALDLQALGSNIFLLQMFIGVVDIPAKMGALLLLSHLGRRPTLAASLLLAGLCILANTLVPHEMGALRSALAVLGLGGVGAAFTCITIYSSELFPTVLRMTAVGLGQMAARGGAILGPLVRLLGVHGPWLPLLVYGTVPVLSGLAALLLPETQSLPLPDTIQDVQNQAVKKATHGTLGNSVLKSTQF
Protocol: The potency of the compounds of formula (I) as inhibitors of the URAT1 was determined as follow.
HEK293-URAT1 cell Lines were donated by Japan Fuji Biomedical Research Institute. Negative control cell of HEK293 (MOCK cells) which was transfected with pcDNA3.1 empty vector. HEK293-URAT1 cell lines and MOCK cell lines were cultured in complete growth medium consisting of DMEM supplemented with 10% FBS, penicillin and streptomycin.
Preparation of working solution: Each stock solutions was diluted to different concentrations (6, 20, 60, 200 and 600 μmol/L) with DMSO as 200× working solution, which was then diluted to 2× compound working solution with HBSS (Cl^− free) buffer. Radiolabeled substrate ^14C-Uric acid solution was diluted with HBSS (Cl^− free) buffer to obtain 2× working solution which was mixed with an equal volume of 2× compound working solution to obtain the mixture of radiolabeled substrate and compound working solution.
HER293-URAT1 and MOCK cells were seeded onto 24-well plates at the density of 1.5×10^6 cells per well. The cells were incubated at 37° C., 5% CO2 overnight. After cultured for approximately 2 to 3 days, cells were used for the experiments. The culture medium were removed from the wells, and cells were washed with HBSS (Cl^− free) and incubated in 37° C. HBSS (Cl^− free) for 10 min. HBSS was replaced with 500 μL of the mixture of radiolabeled substrate and compound working solution. The final concentration of ^14C-Uric acid in the assay was 5.0 μmol/L. Plates were incubated at 37° C., 5% CO2 for 2 min, and the reaction was stopped by the addition of pre-chilled HBSS (Cl^− free) by washing three times. 400 μL, NaOH (0.1 mmol/L) was added to lyse the cells and the cell lysate was collected to scintillation vials, and 3 ml scintillant (Aquasol-2, PerkinElmer) was added and after mixing completely, the radioactivity was counted by Tri-Carb 2910TR liquid scintillation counter. Each concentration of compounds, positive control and negative control were repeated in two wells (n=2). Inhibition % data were calculated using the formula:
Inhibition=[100×(U−U0)/(Uc−U0)]%, and analyzed using Prism5 software. • U0: Average of signals of MOCK cells; • Uc: Average of signals of radiolabeled substrate. The half inhibition concentration of the tested compounds to URAT1 were analyzed using Prism 5 software.

[2] = biological target: T2, CYP2C9 (Homo sapiens, UniProt P11712); assay: CYP inhibition assay in human liver microsomes; type: in vitro ADME; conditions: human liver microsomes 0.200 mg/mL, 37° C. for 10 minutes
T2 construct: conducted using human liver microsomes; from tissue; host or cells: human liver microsomes
T2 sequence (P11712 whole entry): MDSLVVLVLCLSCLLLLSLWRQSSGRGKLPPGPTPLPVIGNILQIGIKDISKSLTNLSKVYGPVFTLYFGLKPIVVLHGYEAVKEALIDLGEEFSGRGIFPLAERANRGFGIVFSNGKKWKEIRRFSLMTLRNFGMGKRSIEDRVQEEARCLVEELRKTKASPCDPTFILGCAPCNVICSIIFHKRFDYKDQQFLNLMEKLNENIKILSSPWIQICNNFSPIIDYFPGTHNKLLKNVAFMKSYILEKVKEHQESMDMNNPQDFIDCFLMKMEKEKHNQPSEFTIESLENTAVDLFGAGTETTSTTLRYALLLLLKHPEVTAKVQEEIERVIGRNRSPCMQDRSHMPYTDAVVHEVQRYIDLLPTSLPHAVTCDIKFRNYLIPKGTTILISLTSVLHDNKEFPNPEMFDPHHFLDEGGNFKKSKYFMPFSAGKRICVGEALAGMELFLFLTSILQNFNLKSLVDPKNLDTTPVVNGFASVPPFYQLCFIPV
Protocol: The CYP inhibition assay was conducted using human liver microsomes at 0.200 mg/mL with a marker substrate for CYP2C9. The substrate concentrations employed were similar to published Michaelis-Menten constants (Km) for each of the respective reactions. The test compounds were added at 8 concentrations (0, 0.0500, 0.150, 0.500, 1.50, 5.00, 15.0, and 50.0 μM). A known inhibitor for the isozyme, at a single concentration (3.00 μM) in duplicates, was selected as the positive control. The reaction in the presence of the organic solvent instead of test compounds served as vehicle control. The final content of organic solvent in all the reactions was up to 0.5% DMSO and 0.5% methanol.
Reactions were initiated by adding NADPH followed by incubation at 37° C. for 10 minutes. And reactions were terminated by adding a 2-fold volume ice-cold acetonitrile with internal standards. Samples were processed and analyzed by liquid chromatography tandem mass spectrometry (LC-MS/MS).The results are given in the Table 4.

[3] = biological target: T1, URAT1; assay: URAT1 inhibitor activity, MDCK cells; type: cell-based; set-up: host or cells: MDCK; conditions: URAT1 inhibition

SMILES | IC50 [1] | IC50 [2] | IC50 [3]
C[C@@H]1CN(C(=O)c2cc(Br)c(O)c(Br)c2)c2c(cnn2C)O1 [Example 1, (R)-(3,5-dibromo-4-hydroxyphenyl)(1,5-dimethyl-5,6-dihydropyrazolo[4,3-b][1,4]oxazin-7(1H)-yl)methanone] | 62 nM | 15.5 µM | 25 nM
Cn1ncc2c1N(C(=O)c1cc(Br)c(O)c(Br)c1)CCO2 [Example 2, (3,5-Dibromo-4-hydroxyphenyl)(1-methyl-5,6-dihydropyrazolo[4,3-b][1,4]oxazin-7(1H)-yl)methanone] | 69 nM | > 50 µM | 29 nM
O=C(c1cc(Br)c(O)c(Br)c1)N1CCOc2cn[nH]c21 [Example 3, (3,5-dibromo-4-hydroxyphenyl)(5,6-dihydropyrazolo[4,3-b][1,4]oxazin-7(1H)-yl)methanone] | 130 nM |  | 
C[C@H]1CN(C(=O)c2cc(Br)c(O)c(Br)c2)c2c(cnn2C)O1 [Example 5, (S)-(3,5-dibromo-4-hydroxyphenyl) (1,5-dimethyl-5,6-dihydropyrazolo[4,3-b][1,4]oxazin-7(1H)-yl)methanone] | 40 nM | 18.9 µM | 93 nM
Cc1nn(C)c2c1OCCN2C(=O)c1cc(Br)c(O)c(Br)c1 [Example 10, (3,5-dibromo-4-hydroxyphenyl)(1,3-dimethyl-5,6-dihydropyrazolo[4,3-b] [1,4]oxazin-7(1H)-yl)methanone] | < 30 nM | 16.2 µM | 85 nM
Cn1ncc2c1N(C(=O)c1cc(Br)c(O)c(Br)c1)CCC2 [Example 11, (3,5-dibromo-4-hydroxyphenyl)(1-methyl-1,4,5,6-tetrahydro-7H-pyrazolo [3,4-b]pyridin-7-yl)methanone] | 100 nM |  | 
Cn1ncc2c1N(C(=O)c1cc(Br)c(O)c(Br)c1)CC(C)(C)O2 [Example 12, (3,5-dibromo-4-hydroxyphenyl)(1,5,5-trimethyl-5,6-dihydropyrazolo[4,3-b] [1,4]oxazin-7(1H)-yl)methanone] |  |  | 80 nM
Cc1nn(C)c2c1OC(C)(C)CN2C(=O)c1cc(Br)c(O)c(Br)c1 [Example 13, (3,5-dibromo-4-hydroxyphenyl)(1,3,5,5-tetramethyl-5,6-dihydropyrazolo[4,3-b][1,4]oxazin-7(1H)-yl)methanone] |  |  | 84 nM
Cn1ncc2c1N(C(=O)c1cc(Cl)c(O)c(Cl)c1)CCO2 [Example 14, (3,5-dichloro-4-hydroxyphenyl)(1-methyl-5,6-dihydropyrazolo[4,3-b][1,4]oxazin-7(1H)-yl)methanone] |  |  | 252 nM
Cc1nn(C)c2c1O[C@@H](C)CN2C(=O)c1cc(Br)c(O)c(Br)c1 [Example 15, (S)-(3,5-dibromo-4-hydroxyphenyl) (1,3,5-trimethyl-5,6-dihydropyrazolo[4,3-b][1,4]oxazin-7(1H)-yl)methanone] |  |  | 126 nM
Cn1ncc2c1N(C(=O)c1cc(Br)c(O)c(Br)c1)CC1(CC1)O2 [Example 16, (3,5-dibromo-4-hydroxyphenyl)(1′-methyl-1′H-spiro[cyclopropane-1,5′-pyrazolo[4,3-b][1,4]oxazin]-7′(6′H)-yl) methanone] |  | 4.25 µM | 48 nM
Cc1nn(C)c2c1OC1(CC1)CN2C(=O)c1cc(Br)c(O)c(Br)c1 [Example 17, (3,5-dibromo-4-hydroxyphenyl)(1′,3′-dimethyl-1′H-spiro[cyclopropane-1,5′-pyrazolo[4,3-b][1,4]oxazin]-7′(6′H)-yl)methanone] |  | 10.4 µM | 60 nM
Cc1nn(C)c2c1O[C@H](C)CN2C(=O)c1cc(Br)c(O)c(Br)c1 [Example 18] |  | 16 µM | 37 nM
Cn1cc2c(n1)N(C(=O)c1cc(Br)c(O)c(Br)c1)CCO2 [Example 19, (3,5-dibromo-4-hydroxyphenyl)(2-methyl-5,6-dihydropyrazolo[4,3-b][1,4]oxazin-7(2H)-yl)methanone] | 339 nM |  | 
O=C(c1cc(Br)c(O)c(Br)c1)N1CCOc2[nH]ncc21 [Example 20, (3,5-dibromo-4-hydroxyphenyl)(5,6-dihydropyrazolo[3,4-b][1,4]oxazin-4(1H)-yl)methanone] | 235 nM |  | 
Cn1ncc2c1OCCN2C(=O)c1cc(Br)c(O)c(Br)c1 [Example 21, (3,5-dibromo-4-hydroxyphenyl)(1-methyl-5,6-dihydropyrazolo[3,4-b][1,4]oxazin-4(1H)-yl)methanone] | 297 nM |  | 
Cc1nn(C)c2c1SCCN2C(=O)c1cc(Br)c(O)c(Br)c1 [Example 23, (3,5-dibromo-4-hydroxyphenyl)(1,3-dimethyl-5,6-dihydropyrazolo[4,3-b][1,4]thiazin-7(1H)-yl)methanone] |  |  | 189 nM
